Read-outs that look alike come from different tables or passages of the source.
Key:
in vitro = settings: human, Cytotoxicity IC50, 72 hr
Procedure: (§1) The effect of drug added in triplicate at concentrations of from e.g., 0 to 100 uM using half log dilutions on HCV RNA-derived LUC activity and cytotoxicity. Human interferon alpha-2b is included in each run as a positive control compound. Subconfluent cultures of the ET line are plated out into 96-well plates that are dedicated for the analysis of cell numbers (cytotoxicity) or antiviral activity and the next day drugs are added to the appropriate wells. Cells are processed 72 hr later when the cells are still subconfluent. Compound cytotoxicity is assessed as the percent viable cells relative to the untreated cell controls.

[1] = system: Huh7 ET (luc-ubi-neo/ET) cells; assay: in vitro; settings: read-out: Cytotoxicity IC50; 72 hr
Procedure: as §1

[2] = system: HCV RNA replicon in Huh7 ET (luc-ubi-neo/ET) cells; assay: microbe, parasite or virus in culture; format: cell-based
Procedure: Anti-HCV assays were conducted at Southern Research Organization using an HCV RNA replicon with a luciferase reporter.
Southern Research reports that they use cell line Huh7 ET (luc-ubi-neo/ET) containing a HCV RNA replicon with a luciferase (LUC) reporter. […] This composition of the replicon is shown as follows
The HCV RNA replicon ET contains the 5′ NTR (IRES) of HCV (5′) which drives the production of a firefly luciferase (Luc), ubiquitin (Ubiq), and neomycin phosphotransferase (Neo) fusion protein. Ubiquitin cleavage releases the LUC and Neo genes. The EMCV IRES element (E-I) controls the translation of the HCV […] proteins NS3-NS5 and is located between Neo and NS3. The NS3 protein cleaves the HCV polyprotein to release the mature NS3, NS4A, NS4B, NS5A and NS5B proteins that are required for HCV replication. At the 3′ end of the replicon is the authentic 3′ NTR of HCV. The LUC reporter is used as an indirect measure of HCV replication. The activity of the LUC reporter is directly proportional to HCV RNA levels and positive control antiviral compounds behave comparably using either LUC or RNA endpoints.
as §1

[3] = Maximum tolerated dose study; format: in vivo; settings: mice, IP, 20, 40 and 60 mg/kg daily for 5 days
Procedure: (§2) Maximum tolerated dose studies and pharmacokinetics for several LSD1 inhibitors were assessed to determine if the compounds can be administered to mammals safely at doses that are expected to achieve therapeutic effects. In particular, Compound X was given to mice IP at 20 mg/kg, 40 mg/kg and 60 mg/kg daily for 5 days in a MTD study conducted at Leitat.

PK studies (Cmax) = format: in vivo, mice; settings: at the MTD study doses
Procedure: as §2

[4] = system: H3K4 methylation in SH-SY5Y cells; assay: Western blot for dimethylated H3K4 in SH-SY5Y cells; format: cell-based
Excerpt: […]. B-actin was used as a loading control.

SMILES | IC50 (in vitro) [nM] | IC50 [1] [nM] | EC50 ([2]; HCV RNA-derived LUC activity, 72 hr, read-out: Antiviral Activity EC50) [nM] | EC50 ([2]; Hepatitis C virus, Huh7 ET, 72 h, HCV RNA-derived LUC activity, 72 hr, read-out: Antiviral Activity EC50) [nM] | EC50 ([2]; Hepatitis C virus, Huh7 ET, read-out: anti-HCV activity in HCV RNA replication assay) [nM] | tolerability in MTD study [3] | Cmax (PK studies (Cmax)) | potency at increasing global dimethylated H3K4 levels as compared to tranylcypromine [4] [fold]
NC1CC1c1ccc(-c2cccc(O)c2)cc1 (centres unmarked) [Compound X] | 54800 | 50600 | < 320 | 490 | 300 to 500 | tolerated with acceptable toxicity | expected to result in therapeutic levels | 
NC(=O)CNC1CC1c1ccc(OCc2ccccc2)cc1 (centres unmarked) [Dual-1] |  |  |  |  |  |  |  | ≥ 10

From patent US9790196B2, “Lysine demethylase inhibitors for diseases and disorders associated with Flaviviridae” (Oryzon Genomics, S.A., priority 2010, dated 2017)
